Data from patent US8603737B2, “Methods for identifying HCV protease inhibitors” (priority 2008, dated 2013).
pEC50, pIC50: −log10 of the molar value.

What was measured:
[1] = molecular target: T1, A156T mutant of the HCV NS3/4A 1b protease enzyme (Hepatitis C virus genotype 1b, UniProt P26663, A1182T); experiment: HCV protease FRET assay, A156T mutant; format: biochemical; conditions: read-out: Inhibition, HCV A156T (IC50)
T1 construct: 10× stocks of NS3/4A protease enzyme from Bioenza; purchased Bioenza (Mountain View, Calif.)
Method: (§1) HCV Protease FRET Assay for Mutated NS3/4A 1b Enzymes
(§2) The protocol is a modified FRET-based assay (v—02) from In Vitro Resistance Studies of HCV Serine Protease Inhibitors, 2004, JBC, vol. 279, No. 17, pp 17508-17514. Inherent potency of compounds was assessed against A156S, A156T, D168A, and D168V mutants of the HCV NS3/4A 1b protease enzyme as follows:
(§3) Assay buffer: 2% CHAPS, 50 mM Tris pH 7.5, 50% glycerol, 2 μM M-2235 (Bachem) substrate. In a 50 μl reaction, add 49 μl assay buffer, 1 μl (1 U) HCV serine protease (Bioenza). Incubate 20 minutes at room temperature. The plate was read at either 350/460 nm (excitation/emission) on a fluorescent micro-plate reader or monitored at one-minute intervals to achieve the kinetic curve.
10× stocks of NS3/4A protease enzyme from Bioenza (Mountain View, Calif.) and 1.13×5-FAM/QXL™520 FRET peptide substrate from Anaspec (San Jose, Calif.) were prepared in 50 mM HEPES, pH 7.8, 100 mM NaCl, 5 mM DTT and 20% glycerol. […] Protease reactions were started with the addition of 45 μL of the FRET substrate and monitored for 120 minutes at λex487/λem514 through Quad^4 monochromoters in a Synergy^4 plate reader from BioTek (Winooski, Vt.). […]

[2] = molecular target: T2, D168V mutant of the HCV NS3/4A 1b protease enzyme (Hepatitis C virus genotype 1b, UniProt P26663, D1194V); experiment: HCV protease FRET assay, D168V mutant; format: biochemical; conditions: read-out: Inhibition, HCV D168V (IC50)
T2 construct: 10× stocks of NS3/4A protease enzyme from Bioenza; purchased Bioenza (Mountain View, Calif.)
Method: as §1, §2, §3
10× stocks of NS3/4A protease enzyme from Bioenza (Mountain View, Calif.) and 1.13×5-FAM/QXL™520 FRET peptide substrate from Anaspec (San Jose, Calif.) were prepared in 50 mM HEPES, pH 7.8, 100 mM NaCl, 5 mM DTT and 20% glycerol. 5 μL of each enzyme were pre-incubated in a Corning (#3573) 384-well, black, non-treated microtiter plate (Corning, N.Y.) for 30 min at 25° C. with a 0.5 μL volume of 50% DMSO and serially diluted compounds prepared in 50% DMSO. Protease reactions were started with the addition of 45 μL of the FRET substrate and monitored for 120 minutes at λex487/λem514 through Quad^4 monochromoters in a Synergy^4 plate reader from BioTek (Winooski, Vt.). […] Initial velocity (0 minutes to 30+ minutes) from each reaction was determined from the slope of a plot of relative fluorescence units vs time (minutes) and then plotted against inhibitor concentration to estimate IC50 from log[Inhibitor] vs Response, Variable Slope model in GraphPad Prism from GraphPad Software (San Diego, Calif.). […]
The following protocol was used to generate “apparent” IC50 (IC50—APP)) values as depicted in Table 3, below. […] Protease reactions were immediately started after enzyme addition with the addition of 45 μL of the FRET substrate and monitored for 60-90 minutes at λex485/λem520 in a Synergy^4 plate reader from BioTek (Winooski, Vt.). […]

[3] = system: HCV RNA replicon in cell line ET (luc-ubi-neo/ET), human Huh7 hepatoma; experiment: Luciferase reporter replicon assay (Example 5, Method C); format: cell-based; conditions: Hepatitis C virus, Huh-7, 72 hr
Method: Method C: Luciferase Reporter Assay Protocol
The compounds were assayed to evaluate the antiviral activity and cytotoxicity of compounds using replicon-derived luciferase activity. This assay used the cell line ET (luc-ubi-neo/ET), which is a human Huh7 hepatoma cell line that contains an HCV RNA replicon with a stable luciferase (Luc) reporter and three cell culture-adaptive mutations. The ET cell line was grown in a 5% CO2 incubator at 37° C. in Dulbecco's modified essential media (DMEM), supplemented with 2 mM L-glutamine (“1%”), nonessential amino acids, 100 U of penicillin/mL, 100 μg of streptomycin/mL (“1%”), 10% fetal bovine serum and 400 μg/mL G418 (Geneticin; Invitrogen).
All cell culture reagents were obtained from Invitrogen (Carlsbad). Cells were trypsinized (1% trypsin:EDTA) and plated out at 5×10^3 cells/well in white 96-well assay plates (Costar) dedicated to cell number (cytotoxicity) or antiviral activity assessments. Test compounds were added at six 3-fold serial dilutions each and the assay was run in DMEM, 5% FBS, 1% pen-strep, 1% glutamine, 1% non essential amino acid. Human interferon alpha-2b (PBL Biolabs, New Brunswick, N.J.) was included in each run as a positive control compound. Cells were processed 72 hr post test compound addition when the cells were still subconfluent. Antiviral activity was measured by analyzing replicon-derived luciferase activity using the Steady-Glo Luciferase Assay System (Promega, Madison, Wis.) according to manufacturer's instruction. The number of cells in each well was determined by Cell Titer Blue Assay (Promega). Compound profile was derived by calculating applicable EC50 (effective concentration inhibiting virus replication by 50%), EC90 (effective concentration inhibiting virus replication by 90%), IC50 (concentration decreasing cell viability by 50%) and SI50 (selective index: […]) values.

Structure (SMILES) | pIC50 [1] | pIC50 [2] | IC90 ([3]; IC90, read-out: Inhibition, Replicon, IC90 value, Method C) [nM] | pIC50 ([3]; read-out: Inhibition, Replicon (IC50), Method C) | EC90 ([3]; EC90, read-out: Inhibition, Replicon, EC90 value) [nM] | pEC50 ([3]; read-out: Inhibition, Replicon, EC50 value)
C=C[C@@H]1C[C@]1(NC(=O)[C@@H]1C[C@@H](Oc2cc(-c3ccccc3)nc3cc(OC)ccc23)CN1C(=O)C(NC(=O)OC(C)(C)C)[C@@H](C)OC(=O)/C=C/C)C(=O)NS(=O)(=O)C1CC1 (some centres unmarked) [Compound 3] | 6.00 to 7.00 | 5.00 to 6.00 |  |  |  | 
C=CC(=O)N(C)C[C@H](NC(=O)OC(C)(C)C)C(=O)N1C[C@H](OC(=O)N2Cc3cccc(F)c3C2)C[C@H]1C(=O)N[C@]1(C(=O)NS(=O)(=O)C2CC2)C[C@H]1C=C [Compound 4] | > 8.00 | 7.00 to 8.00 | 10 to 100 | > 8.00 |  | 
CC(C)(C)OC(=O)NC1CN(C(=O)CCl)CCC/C=C\[C@@H]2C[C@@]2(C(=O)NS(=O)(=O)C2CC2)NC(=O)[C@@H]2C[C@@H](OC(=O)N3Cc4cccc(F)c4C3)CN2C1=O (some centres unmarked) [Compound 8] |  |  |  |  | 100 to 1000 | 7.00 to 8.00
